Test results from the supplement of paper PMC5844555.

Key:
Experiment in all cases: 3' UTR reporter interaction score (median-centred robust z-score of log2 firefly/Renilla activity); higher = less repression of the 3' UTR reporter
Settings in all cases: HEK293T; 48 h
[1] = test system: BRCA2
Summary of the method: (§1)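 In at least two independent screens, HEK293T cells in 96-well plates (10,000/well) were co-transfected with DharmaFECT Duo using 100 ng firefly luc2P reporter with the gene's 3' UTR, 20 ng Renilla pRL-TK control and 2.5 pmol miRNA mimic, and dual-luciferase activities were read at 48 h. The interaction score, averaged across screens, is the per-plate robust z-score (median, median absolute deviation) of the log firefly/Renilla ratio, median-centred per miRNA, with more negative indicating interaction.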

[2] = test system: EZH2
Summary of the method: as §1

[3] = test system: FBXW7
Summary of the method: as §1

[4] = test system: HRAS
Summary of the method: as §1

[5] = test system: MYB
Summary of the method: as §1

[6] = test system: MYCN
Summary of the method: as §1

[7] = test system: MYC
Summary of the method: as §1

[8] = test system: MYT1L
Summary of the method: as §1

[9] = test system: NOTCH1
Summary of the method: as §1

[10] = test system: PHF6
Summary of the method: as §1

[11] = test system: PHOX2B
Summary of the method: as §1

[12] = test system: RB1
Summary of the method: as §1

[13] = test system: TP53
Summary of the method: as §1

[14] = test system: ZEB2
Summary of the method: as §1

Sequence	3' UTR reporter interaction score [1]	3' UTR reporter interaction score [2]	3' UTR reporter interaction score [3]	3' UTR reporter interaction score [4]	3' UTR reporter interaction score [5]	3' UTR reporter interaction score [6]	3' UTR reporter interaction score [7]	3' UTR reporter interaction score [8]	3' UTR reporter interaction score [9]	3' UTR reporter interaction score [10]	3' UTR reporter interaction score [11]	3' UTR reporter interaction score [12]	3' UTR reporter interaction score [13]	3' UTR reporter interaction score [14]
AGCUCGGUCUGAGGCCCCUCAG	1.86	-0.671	0.253	0.284	0.304	-0.643	-0.504	3.65	1.23	0.229	-1.22	3.69	0.0655	2.05
AGCUGGUGUUGUGAAUC	-0.493	-0.157	-0.398	-0.334	0.129	0.275	0.179	0.16	0.152	-0.508	0.54	-0.243	0.136	0.43
AGCUGUCUGAAAAUGUCUU	-0.293	-0.132	0.675	-0.208	-0.536	-0.701	0.303	0.171	-0.774	-0.786	1.04	0.19	0.132	-0.552
AGGAAGCCCUGGAGGGGCUGGAGGU	-1.21	-0.359	-0.101	0.456	0.39	1.43	-0.314	1.24	-1.34	-0.529	1.18	-0.165	0.127	-0.152
AGGAAUGUUCCUUCUUUGCC	-1.4	-0.309	-2.13	0.683	-0.0682	-0.0855	0.63	-0.098	-0.469	-0.446	2.32	0.276	-0.812	2.6
AGGACCUGCGGGACAAGAUUCUU	0.115	-0.425	-0.188	-0.0697	0.35	-0.207	-0.0464	-0.0205	0.243	-0.476	1.33	0.102	-0.45	0.526
AGGAGGCAGCGCUCUCAGGAC	-0.741	-1.61	-0.582	-0.534	0.571	0.868	-1.13	2.05	-2.44	1.36	0.109	0.463	-0.457	2.03
AGGCACGGUGUCAGCAGGC	-0.203	0.629	0.393	-0.153	0.171	-0.274	0.509	0.478	0.0125	0.283	0.32	0.0845	-0.839	-0.659
AGGCAGUGUAGUUAGCUGAUUGC	0.647	1.87	-0.242	1.1	-4.27	-5.02	-1.05	0.754	-3.48	-2.27	-1.02	0.138	0.285	-0.539
